Consider 1 molecule from article PMC10313827 (2023).

The test system of this test is RhoBAST (RNA, aptamer) GGAACCUCCGCGAAAGCGGUGAAGGAGAGGCGCAAGGUUAACCGCCUCAGGUUCC
The test can be described thus: fluorescence titration, fixed dye, aptamer varied. The conditions noted are these: 125 mM KCl, 1 mM MgCl2; 20 mM HEPES pH 7.4, 0.05% Tween 20, 25 °C, 10 nM dye.

`CN(C)S(=O)(=O)N1C(=O)c2ccccc2C12c1ccc(N3CCC3)cc1Oc1cc(N3CCC3)ccc12`: the KD (in general, the equilibrium constant for the complex coming apart) stood at 100 ± 8 nM. That is a sub-micromolar value.
